Test results reported in patent US5753610A, “Perfume containing (6E) -2,3-dihydrofarnesol” (Takasago International Corporation, priority 1995, dated 1998).
Values after ≈ are worked out from the molar mass of the structure shown. Read-outs that look alike come from different tables or passages of the source.

What was measured:
Guinea pig skin = conditions: in vivo
Protocol: A sensitization test with the use of Guinea pigs was carried out in accordance with the Magnusson method by using (a) the (6E)-2,3-dihydrofarnesol of a purity of 99% or above, (b) the (6E)-2,3-dihydrofarnesol of a purity of 52% and (d) the (3S)-(6E)-2,3-dihydrofarnesol.
Then the same test was performed by using farnesol [(2E,6E)-form: (2E,6Z)-form: (2Z,6E)-form: (2Z,6Z)-form=1:1:1:1] which was an analog of the (6E)-2,3-dihydrofarnesol of the present invention.

[1] = system: bacteria listed in Table 1; assay: Antibacterial test on the bacteria listed in Table 1 (overall statements); type: cell-based; conditions: for antimicrobial activity compared with the (6E)-2,3-dihydrofarnesol described before: same test, bacteria listed in Table 1
Protocol: (§1) The minimum inhibitory concentrations of (6E)-2,3-dihydrofarnesol synthesized in Synthesis Example 1 on bacteria listed in Table 1 were determined in the following manner by the step dilution method in an agar medium.
(§2) 10 g of brain heart infusion medium (manufactured by Nissui Seiyaku K.K.), 10 g of dry bouillon (manufactured by Nissui Seiyaku K.K.), 4 g of yeast extract powder (manufactured by Difco Laboratories) and 14 g of agar were added to 1,000 ml of distilled water and dissolved therein by heating. Then the obtained solution was pipetted in 10 ml portions into test tubes and sterilized under elevated pressure. Then it was heated again and sustained in the state of a solution. Subsequently, each test solution and ethanol or DMSO (dimethyl sulfoxide) free from any antimicrobial compound of the present invention (employed as a control) were added thereto in amounts of 5 to 200 μl. After mixing, the solutions were poured into plastic Petri dishes (inner diameter: 90 mm) and solidified.
(§3) The medium thus solidified in each Petri dish was divided into 9 parts. Then 5 μl portions of suspensions of the test microorganisms except acne bacteria in distilled water (cell or spore count: 10^8 -10^9 /ml) were inoculated thereinto and incubated at 30° C. for 48 hours.
(§4) In the case of the acne bacteria, a GAM medium (manufactured by Nissui Seiyaku K.K.) was pipetted in 6 ml portions into screwed test tubes (10×105 mm) and sterilized. After adding sample solutions, a culture medium of the acne bacteria was inoculated in 5 μl portions and incubated at 37° C. for 48 hours followed by the judgement of the growth.
Further, the (6E)-2,3-dihydrofarnesol synthesized in Synthesis Example 2 and the (3S)-(6E)-2,3-dihydrofarnesol synthesized in Synthesis Example 3 were subjected to the same test by using the bacteria listed in Table 1.

human skin [2] = assay: Patch test on human skin (inside of upper arms); conditions: for skin irritation: 10% in lanolin, 30 subjects, first 24 hours and subsequent 24 hours
Protocol: (§5) The obtained solution was then applied onto patches (Finnchamber, manufactured by Taisho Pharmaceutical Co., Ltd.). These patches were adhered to the inside of upper arms of 30 subjects. After 24 hours, the patches were peeled from the skin and the skin irritation was examined. Further, the skin irritation was examined after the subsequent 24 hours.

Staphylococcus aureus = assay: Antibacterial test, step dilution method in agar medium; type: cell-based; conditions: 30° C., 48 hours, read-out: minimum inhibitory concentration (MIC)
Protocol: as §1, §2, §3

coryne bacteria = assay: as above; type: cell-based; conditions: 30° C., 48 hours, read-out: minimum inhibitory concentration (MIC)
Protocol: as §1, §2, §3

indigenous skin bacteria = assay: as above; type: cell-based; conditions: 30° C., 48 hours, read-out: minimum inhibitory concentration (MIC)
Protocol: as §1, §2, §3

[3] = system: bacteria listed in Table 1; conditions: JP-A-60-64913; cited from earlier work
Bacillus subtilis = assay: Antibacterial test, step dilution method in agar medium; type: cell-based; conditions: 30° C., 48 hours
Protocol: as §1, §2, §3

Pseudomonas aeruginosa = assay: as above; type: cell-based; conditions: 30° C., 48 hours
Protocol: as §1, §2, §3

acne bacteria = assay: Antibacterial test, acne bacteria in GAM medium; type: cell-based; conditions: 37° C., 48 hours
Protocol: as §1, §4

human skin [4] = conditions: in vivo
Protocol: as §5

skin = conditions: background, restricts use on a mass scale; cited from earlier work

CC(C)=CCC/C(C)=C/CC[C@H](C)CCO [(d), (3S)-(6E)-2,3-dihydrofarnesol]
sensitization (Guinea pig skin): high safety without any sensitization | antimicrobial activity compared with the (6E)-2,3-dihydrofarnesol described before [1]: antimicrobial activity similar to the above-mentioned (6E)-2,3-dihydrofarnesol | antimicrobial activity compared with the (6E)-2,3-dihydrofarnesol described before ([1]; listed as (3S)-(6E)-2,3-dihydrofarnesol synthesized in Synthesis Example 3): almost the same as those described above, though some differences were observed | skin irritation (human skin [2]): no skin irritation

CC(C)=CCCC(C)=CCCC(C)=CCO [farnesol]
MIC (Staphylococcus aureus): 50 µg/mL (≈ 225 µM) | MIC (coryne bacteria): 25 µg/mL (≈ 112 µM) | MIC (indigenous skin bacteria): 50 µg/mL (≈ 225 µM) | antimicrobial activity [3]: has an antimicrobial activity

CC(C)=CCC/C(C)=C/CCC(C)CCO (stereo not drawn) [(a), (6E)-2,3-dihydrofarnesol]
antimicrobial activity compared with the (6E)-2,3-dihydrofarnesol described before [1]: almost the same as those described above, though some differences were observed | skin irritation (human skin [2]): no skin irritation

CC(C)=CCC/C(C)=C/CCC(C)CCO (stereo not drawn) [(b), (6E)-2,3-dihydrofarnesol]
minimum inhibitory concentration (MIC) (Bacillus subtilis): 20 ppm | minimum inhibitory concentration (MIC) (Pseudomonas aeruginosa): 20 ppm | concentration at which an antimicrobial activity was exerted (acne bacteria): ≤ 10 ppm | concentration at which an antimicrobial activity was observed ([1]; bacteria of Table 1): ≤ 30 ppm | skin irritation (human skin [4]): no skin irritation

CC(C)=CCC/C(C)=C/CCC(C)CCO (stereo not drawn) [(6E)-2,3-dihydrofarnesol]
antimicrobial activity compared with farnesol [1]: superior to farnesol in the antimicrobial activity on some bacteria | sensitization, human skin (human skin [2]; 10% in a lanolin solution): no sensitization

CC(C=O)Cc1ccc(C(C)C)cc1 (stereo not drawn) [cyclamen aldehyde]
skin sensitization (skin): skin sensitization
